Assay results reported in PMC11969548 (2025).

Key:
[1] = system: P27 (DD aptagel) (DNA, aptamer) CGACCGAGGGTACCGCAATAGTACTTA/TTGTTCGCCTATTGTGGGTCGGGTCG; assay: angular SPR of hydrogel film; conditions: PBS, 2 mM Mg2+, 200-fold diluted rat plasma, 37 °C
[2] = system: Full (full-length parent aptamer, aptagel) (DNA, aptamer) CGACCGAGGGTACCGCAATAGTACTTATTGTTCGCCTATTGTGGGTCGGGTCG; assay: angular SPR and QCM-D of hydrogel film; conditions: PBS, 2 mM Mg2+; 37 °C; 1 mM vancomycin; 1 mM aptamer; partly irreversible
[3] = system: PolyA (PA) aptagel (DNA, single strand) AAAAAAAAAAAAAAAAAAAAAAAAAAA; assay: angular SPR of hydrogel film; conditions: PBS, 2 mM Mg2+; 37 °C; 1 mM vancomycin; 3 mM poly A, [ene]/[SH] 4
[4] = system: P27 (monolayer) (DNA, aptamer) CGACCGAGGGTACCGCAATAGTACTTA/TTGTTCGCCTATTGTGGGTCGGGTCG; assay: SPR, dissociation phase fit; conditions: PBS, 2 mM Mg2+, pH 7.4, 37 °C, split 2 in solution, independent of analyte concentration
[5] = system: P27 (DD aptagel) (DNA, aptamer) CGACCGAGGGTACCGCAATAGTACTTA/TTGTTCGCCTATTGTGGGTCGGGTCG; assay: angular SPR of hydrogel film, dissociation phase fit; conditions: PBS, 2 mM Mg2+; pH 7.4, 37 °C; vancomycin below 50 µM; rises to 0.7 above 100 µM; apparent
[6] = system: P27 (MD aptagel) (DNA, aptamer) CGACCGAGGGTACCGCAATAGTACTTA/TTGTTCGCCTATTGTGGGTCGGGTCG; assay: angular SPR and QCM-D of hydrogel film; conditions: PBS, 2 mM Mg2+; 37 °C; 1 mM vancomycin; 1 mM aptamer; reversible
[7] = system: P27 (MM aptagel) (DNA, aptamer) CGACCGAGGGTACCGCAATAGTACTTA/TTGTTCGCCTATTGTGGGTCGGGTCG; assay: angular SPR and QCM-D of hydrogel film; conditions: PBS, 2 mM Mg2+; 37 °C; 1 mM vancomycin; 1 mM aptamer; reversible; smallest response
[8] = system: P27.i (monolayer) (DNA, aptamer) CGACCGAGGGTACCGCAATAGTACTTA/TTGTTCGCCTATTGCGGGTCGGGTCG; assay: SPR, dissociation phase fit; conditions: PBS, 2 mM Mg2+, pH 7.4, 37 °C, split 2 in solution, independent of analyte concentration
[9] = concentration matching refractive index of 10 µM vancomycin

CC1(C)S[C@@H]2[C@H](NC(=O)[C@H](N)c3ccccc3)C(=O)N2[C@H]1C(=O)O
binding [1, 9]: no

CN[C@H](CC(C)C)C(=O)N[C@H]1C(=O)N[C@@H](CC(N)=O)C(=O)N[C@H]2C(=O)N[C@H]3C(=O)N[C@H](C(=O)N[C@H](C(=O)O)c4cc(O)cc(O)c4-c4cc3ccc4O)[C@H](O)c3ccc(c(Cl)c3)Oc3cc2cc(c3O[C@@H]2O[C@H](CO)[C@@H](O)[C@H](O)[C@H]2O[C@H]2C[C@](C)(N)[C@H](O)[C@H](C)O2)Oc2ccc(cc2Cl)[C@H]1O
binding [2]: yes
binding [3]: no
koff [4]: 0.0033 s⁻¹
koff [5]: ~ 0.2 min^-1
binding [6]: yes
binding [7]: weak
koff [8]: ~ 0.16 min^-1

CO[C@H]1/C=C/O[C@@]2(C)Oc3c(C)c(O)c4c(O)c(c(/C=N/N5CCN(C)CC5)c(O)c4c3C2=O)NC(=O)/C(C)=C\C=C\[C@H](C)[C@H](O)[C@@H](C)[C@@H](O)[C@@H](C)[C@H](OC(C)=O)[C@@H]1C
binding [1, 9]: no

OC[C@H]1OC(O)[C@H](O)[C@@H](O)[C@@H]1O (stereo partly shown)
binding ([1]; 80 µM glucose): no
